Tests used:
[1] = target: T1, recombinant human ALK5 (TGF-βR1) protein (Homo sapiens, UniProt P36897); experiment: Biochemical ALK5 (TGF-βR1) assay to measure pKi (LANCE Ultra ULight kinase assay); conditions: apparent pKi, converted from pIC50 by Cheng-Prusoff
T1 construct: purchased Life Technologies PR9075A
T1 sequence (P36897 34-503): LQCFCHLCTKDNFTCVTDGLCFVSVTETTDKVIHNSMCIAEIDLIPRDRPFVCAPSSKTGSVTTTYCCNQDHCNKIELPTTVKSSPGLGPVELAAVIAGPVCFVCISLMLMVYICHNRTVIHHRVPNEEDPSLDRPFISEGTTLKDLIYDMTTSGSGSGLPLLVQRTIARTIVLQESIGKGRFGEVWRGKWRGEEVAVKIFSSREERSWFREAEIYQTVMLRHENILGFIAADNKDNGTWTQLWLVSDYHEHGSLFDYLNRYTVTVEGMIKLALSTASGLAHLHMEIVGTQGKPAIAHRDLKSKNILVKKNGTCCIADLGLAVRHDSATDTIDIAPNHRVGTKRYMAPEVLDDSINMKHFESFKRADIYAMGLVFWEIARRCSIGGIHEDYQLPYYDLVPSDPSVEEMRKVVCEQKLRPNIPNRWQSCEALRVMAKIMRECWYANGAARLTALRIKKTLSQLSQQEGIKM
Summary of the method: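 Enzyme preincubated with compound for 60 min at room temperature, then reacted with ATP (125 μM as 5× stock) for 60 min at 37 °C. Stopped with EDTA plus Eu-anti-phospho-Topoisomerase 2-alpha (Thr1342) antibody and read by TR-FRET at 665 nm. pIC50 from a 4-parameter fit, converted to pKi by Cheng-Prusoff.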

[2] = test system: TGF-β-stimulated SMAD3 phosphorylation in BEAS-2B cells; experiment: Cellular ALK5 potency assay, inhibition of TGF-β stimulated pSMAD3 formation in BEAS-2B cells; assay type: cell-based; conditions: Homo sapiens, pSMAD3, TGF-β 10 ng/mL, read-out: BEAS2B pIC50 (converted)
Summary of the method: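 Reported as pIC50, potency reflects dose-dependent loss of AlphaLISA pSMAD3 signal versus TGF-β-stimulated, compound-free BEAS-2B cells. Compound was applied for 1 h in BSA-containing HBSS buffer before a 30-min challenge with TGF-β at 10 ng/mL final.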

## Cc1cccc(-c2nccc(Nc3ccnc(Nc4ccc(N5CCN(C)CC5)cn4)n3)n2)n1 [Compound 267, N2-[5-(4-methylpiperazin-1-yl)-2-pyridyl]-N4-[2-(6-methyl-2-pyridyl)pyrimidin-4-yl]pyrimidine-2,4-diamine]
[1]
  Ki: 0.398 to 3.16 nM
[2]
  IC50: 25.1 to 158 nM

## COC(=O)[C@H]1CN(Cc2ccc(Nc3nccc(Nc4ccnc(-c5cccc(C)n5)n4)n3)cc2)CCN1 [Compound 268, methyl (2R)-4-[[4-[[4-[[2-(6-methyl-2-pyridyl)pyrimidin-4-yl]amino]pyrimidin-2-yl]amino]phenyl]methyl] piperazine-2-carboxylate]
[1]
  Ki: 0.0398 to 0.316 nM
[2]
  IC50: ≤ 20 nM

## Cc1cccc(-c2nccc(Nc3ccnc(Nc4ccc(NC(=O)C5CCN(CCN(C)C)CC5)cc4)n3)n2)n1 [Compound 269, 1-[2-(dimethylamino)ethyl]-N-[4-[[4-[[2-(6-methyl-2-pyridyl)pyrimidin-4-yl]amino]pyrimidin-2-yl]amino]phenyl]piperidine-4-carboxamide]
[1]
  Ki: 0.0398 to 0.316 nM
[2]
  IC50: 200 to 1260 nM

## Cc1cccc(-c2nccc(Nc3ccnc(Nc4ccc(S(=O)(=O)N5CCN(C)CC5)cc4)n3)n2)n1 [Compound 270, N2-[4-(4-methylpiperazin-1-yl)sulfonylphenyl]-N4-[2-(6-methyl-2-pyridyl)pyrimidin-4-yl]pyrimidine-2,4-diamine]
[1]
  Ki: 0.0398 to 0.316 nM
[2]
  IC50: 25.1 to 158 nM

## CNC(=O)[C@@H]1CN(Cc2ccc(Nc3nccc(Nc4ccnc(-c5cccc(C)n5)n4)n3)cc2)CCN1 [Compound 271, (2S)-N-methyl-4-[[4-[[4-[[2-(6-methyl-2-pyridyl)pyrimidin-4-yl]amino]pyrimidin-2-yl]amino]phenyl]methyl] piperazine-2-carboxamide]
[1]
  Ki: 0.0398 to 0.316 nM
[2]
  IC50: 25.1 to 158 nM

## Cc1cccc(-c2nccc(Nc3ccnc(Nc4ccc(NS(C)(=O)=O)cc4)n3)n2)n1 [Compound 272, N-[4-[[4-[[2-(6-methyl-2-pyridyl)pyrimidin-4-yl]amino]pyrimidin-2-yl]amino]phenyl] methanesulfonamide]
[1]
  Ki: 0.0398 to 0.316 nM
[2]
  IC50: 25.1 to 158 nM

## CNCCNS(=O)(=O)c1cccc(Nc2nccc(Nc3ccnc(-c4cccc(C)n4)n3)n2)c1 [Compound 273, N-[2-(methylamino)ethyl]-3-[[4-[[2-(6-methyl-2-pyridyl)pyrimidin-4-yl]amino]pyrimidin-2-yl]amino]benzenesulfonamide]
[1]
  Ki: 0.0398 to 0.316 nM
[2]
  IC50: 25.1 to 158 nM

## Cc1cccc(-c2nccc(Nc3ccnc(Nc4ccc(CN5CCC(C(=O)OCC6CNC6)CC5)cc4)n3)n2)n1 [Compound 275, azetidin-3-ylmethyl 1-[[4-[[4-[[2-(6-methyl-2-pyridyl)pyrimidin-4-yl]amino]pyrimidin-2-yl]amino]phenyl]methyl] piperidine-4-carboxylate]
[1]
  Ki: 0.0398 to 0.316 nM
[2]
  IC50: 25.1 to 158 nM

## Cc1cccc(-c2nccc(Nc3ccnc(Nc4ccc(NC(=O)N5CCN[C@@H](CO)C5)cc4)n3)n2)n1 [Compound 276, (3R)-3-(hydroxymethyl)-N-[4-[[4-[[2-(6-methyl-2-pyridyl)pyrimidin-4-yl]amino]pyrimidin-2-yl]amino]phenyl]piperazine-1-carboxamide]
[1]
  Ki: 0.0398 to 0.316 nM
[2]
  IC50: 25.1 to 158 nM

## Cc1cccc(-c2nccc(Nc3ccnc(Nc4ccc5c(c4)CC4(CCNC4)C5)n3)n2)n1 (stereo not shown) [Compound 277, N2-(1,3-dihydrospiro[indene-2,3′-pyrrolidin]-5-yl)-N4-(2-(6-methylpyridin-2-yl)pyrimidin-4-yl)pyrimidine-2,4-diamine]
[1]
  Ki: 0.0398 to 0.316 nM
[2]
  IC50: 25.1 to 158 nM

## Cc1cccc(-c2nccc(Nc3ccnc(Nc4ccc(CN5C[C@H]6C[C@@H]5CN6)cc4)n3)n2)n1 [Compound 279, N2-[4-[[(1R,4R)-2,5-diazabicyclo[2.2.1]heptan-2-yl]methyl]phenyl]-N4-[2-(6-methyl-2-pyridyl)pyrimidin-4-yl]pyrimidine-2,4-diamine]
[1]
  Ki: 0.0398 to 0.316 nM
[2]
  IC50: 25.1 to 158 nM

## Cc1cccc(-c2nccc(Nc3ccnc(Nc4ccc(CC5CNC5)cc4)n3)n2)n1 [Compound 280, N2-[4-(azetidin-3-ylmethyl)phenyl]-N4-[2-(6-methyl-2-pyridyl)pyrimidin-4-yl]pyrimidine-2,4-diamine]
[1]
  Ki: 0.0398 to 0.316 nM
[2]
  IC50: 25.1 to 158 nM

## Cc1cccc(-c2nccc(Nc3ccnc(Nc4ccc(N5CCOCC5)cn4)n3)n2)n1 [Compound 281, N4-[2-(6-methyl-2-pyridyl)pyrimidin-4-yl]-N2-(5-morpholino-2-pyridyl)pyrimidine-2,4-diamine]
[1]
  Ki: 0.398 to 3.16 nM
[2]
  IC50: 25.1 to 158 nM

## Cc1cccc(-c2nccc(Nc3ccnc(Nc4cccc(NC(=O)C5CCN(C6CCN(C)CC6)CC5)c4)n3)n2)n1 [Compound 282, 1-(1-methyl-4-piperidyl)-N-[3-[[4-[[2-(6-methyl-2-pyridyl)pyrimidin-4-yl]amino]pyrimidin-2-yl]amino]phenyl]piperidine-4-carboxamide]
[1]
  Ki: 0.0398 to 0.316 nM
[2]
  IC50: 25.1 to 158 nM

## Cc1cccc(-c2nccc(Nc3ccnc(Nc4ccc(CN5CCN[C@H](C(=O)O)C5)cc4)n3)n2)n1 [Compound 283, (2S)-4-[[4-[[4-[[2-(6-methyl-2-pyridyl)pyrimidin-4-yl]amino]pyrimidin-2-yl]amino]phenyl]methyl] piperazine-2-carboxylic acid]
[1]
  Ki: 0.0398 to 0.316 nM
[2]
  IC50: 200 to 1260 nM

## Cc1cccc(-c2nccc(Nc3ccnc(Nc4ccc5[nH]ncc5c4)n3)n2)n1 [Compound 284, N2-(1H-indazol-5-yl)-N4-[2-(6-methyl-2-pyridyl)pyrimidin-4-yl]pyrimidine-2,4-diamine]
[1]
  Ki: 0.398 to 3.16 nM
[2]
  IC50: ≤ 20 nM

## Cc1cccc(-c2nccc(Nc3ccnc(Nc4ccc(O)cc4)n3)n2)n1 [Compound 285, 4-[[4-[[2-(6-methyl-2-pyridyl)pyrimidin-4-yl]amino]pyrimidin-2-yl]amino]phenol]
[1]
  Ki: 0.398 to 3.16 nM
[2]
  IC50: 25.1 to 158 nM

## Cc1cccc(-c2nccc(Nc3ccnc(Nc4cnn(CCCN)c4)n3)n2)n1 [Compound 286, N2-[1-(3-aminopropyl)pyrazol-4-yl]-N4-[2-(6-methyl-2-pyridyl)pyrimidin-4-yl]pyrimidine-2,4-diamine]
[1]
  Ki: 0.0398 to 0.316 nM
[2]
  IC50: 200 to 1260 nM

## Cc1cccc(-c2nccc(Nc3ccnc(Nc4nc(CN5CCNCC5)cs4)n3)n2)n1 [Compound 287, N4-(2-(6-methylpyridin-2-yl)pyrimidin-4-yl)-N2-(4-(piperazin-1-ylmethyl)thiazol-2-yl)pyrimidine-2,4-diamine]
[1]
  Ki: 0.398 to 3.16 nM
[2]
  IC50: 25.1 to 158 nM

## Cc1cccc(-c2nccc(Nc3ccnc(Nc4cccc(NC(=O)C5CCNCC5)c4)n3)n2)n1 [Compound 288, N-[3-[[4-[[2-(6-methyl-2-pyridyl)pyrimidin-4-yl]amino]pyrimidin-2-yl]amino]phenyl]piperidine-4-carboxamide]
[1]
  Ki: 0.0398 to 0.316 nM
[2]
  IC50: ≤ 20 nM

## Cc1cccc(-c2nccc(Nc3ccnc(Nc4ccc(N5CCC(N)C5)cc4)n3)n2)n1 (stereo not shown) [Compound 289, N2-[4-(3-aminopyrrolidin-1-yl)phenyl]-N4-[2-(6-methyl-2-pyridyl)pyrimidin-4-yl]pyrimidine-2,4-diamine]
[1]
  Ki: 0.0398 to 0.316 nM
[2]
  IC50: 25.1 to 158 nM

## Cc1cccc(-c2nccc(Nc3ccnc(Nc4ccc(C(=O)N5CCNCC5)cc4)n3)n2)n1 [Compound 290, [4-[[4-[[2-(6-methyl-2-pyridyl)pyrimidin-4-yl]amino]pyrimidin-2-yl]amino]phenyl]-piperazin-1-yl-methanone]
[1]
  Ki: 0.0398 to 0.316 nM
[2]
  IC50: 25.1 to 158 nM

## Cc1cccc(-c2nccc(Nc3ccnc(Nc4nc(C(=O)O[C@@H]5CCN(C)C5)cs4)n3)n2)n1 [Compound 291, [(3R)-1-methylpyrrolidin-3-yl] 2-[[4-[[2-(6-methyl-2-pyridyl)pyrimidin-4-yl]amino]pyrimidin-2-yl]amino]thiazole-4-carboxylate]
[1]
  Ki: 0.398 to 3.16 nM
[2]
  IC50: 25.1 to 158 nM

## Cc1cccc(-c2nccc(Nc3ccnc(Nc4cccc(C(=O)N5CCN(C(C)C)CC5)c4)n3)n2)n1 [Compound 292, (4-isopropylpiperazin-1-yl)-[3-[[4-[[2-(6-methyl-2-pyridyl)pyrimidin-4-yl]amino]pyrimidin-2-yl]amino]phenyl]methanone]
[1]
  Ki: 0.398 to 3.16 nM
[2]
  IC50: 25.1 to 158 nM

## CNC(=O)[C@H]1CN(Cc2ccc(Nc3nccc(Nc4ccnc(-c5cccc(C)n5)n4)n3)cc2)CCN1 [Compound 293, (2R)-N-methyl-4-[[4-[[4-[[2-(6-methyl-2-pyridyl)pyrimidin-4-yl]amino]pyrimidin-2-yl]amino]phenyl]methyl] piperazine-2-carboxamide]
[1]
  Ki: 0.0398 to 0.316 nM
[2]
  IC50: 25.1 to 158 nM

## Cc1cccc(-c2nccc(Nc3ccnc(Nc4ccc(F)c(CO)c4)n3)n2)n1 [Compound 294, [2-fluoro-5-[[4-[[2-(6-methyl-2-pyridyl)pyrimidin-4-yl]amino]pyrimidin-2-yl]amino]phenyl]methanol]
[1]
  Ki: 0.0398 to 0.316 nM
[2]
  IC50: ≤ 20 nM

From US20230399312A1, “SUBSTITUTED PYRIMIDINES AND METHODS OF USE” (THERAVANCE BIOPHARMA R&D IP, LLC, priority 2020, published 2023)
